Laboratory results published in patent publication US20230375502A1, “NEUROTRANSMITTER CONCENTRATION MEASURING APPARATUS FOR PROVIDING SECOND DERIVATIVE-BASED NEUROTRANSMITTER CONCENTRATION MEASUREMENT RESULT OF FAST-SCAN CYCLIC VOLTAMMETRY DATA AND METHOD THEREOF” (Daegu Gyeongbuk Institute of Science and Technology, priority 2022, published 2023).

System: striatum of Parkinson's disease (PD) model (6-OHDA) mice
Test: FSCV/SDBR measurement of tonic dopamine concentration in the striatum after levodopa infusion
Format: in vivo
Settings: FSCV with SDBR, levodopa injected after about 15 minutes flat signal, increases for about 25 minutes, then re-saturates
Description: FIGS. 8A and 8B illustrate results of measuring a neurotransmitter concentration in an in vivo experiment using the neurotransmitter concentration measuring apparatus according to an embodiment of the present disclosure. FIGS. 8A and 8B illustrate examples for confirming SDBR-based tonic dopamine measurement results, which can be confirmed through long-term measurement using standard FSCV data, through in vivo experiments by a neurotransmitter concentration measuring apparatus according to an embodiment of the present disclosure. The graphs 810 to 813 are shown to compare the results measured in the striatum of mice after levodopa infusion. To confirm the practicality of SDBR in the in vivo environment, FSCV results after levodopa infusion of the striatum of healthy mice and the striatum of Parkinson's disease (PD) model (6-OHDA) mice are shown in FIGS. 8A and 8B. Meanwhile, the graphs 810 to 813 of FIG. 8B show the results measured by FSCV in the striatum 15 minutes after levodopa was directly injected into the experimental mice, and the graphs 810 and 811 indicate that the amplitude of the dopamine peak consistently increases independent of drug infusion due to the background subtraction technique.

`N[C@@H](Cc1ccc(O)c(O)c1)C(=O)O` [levodopa] was tested, and the “estimated dopamine concentration after levodopa infusion (SDBR)” value was 72.4 nM.
